In PMC5642273 (Biochemistry, 2017):
Read-outs that look alike come from different tables or passages of the source.

Tests used:
[1] = biological target: T1, (+)-limonene synthase [(+)-LS] (Citrus sinensis, UniProt A0A1C9J6A7); assay: X-ray crystal structure; assay type: biochemical
[2] = biological target: T1, (+)-limonene synthase [(+)-LS]; assay: X-ray crystal structure; assay type: biochemical; remark: listed apart in the source

T1 sequence (A0A1C9J6A7 53-607): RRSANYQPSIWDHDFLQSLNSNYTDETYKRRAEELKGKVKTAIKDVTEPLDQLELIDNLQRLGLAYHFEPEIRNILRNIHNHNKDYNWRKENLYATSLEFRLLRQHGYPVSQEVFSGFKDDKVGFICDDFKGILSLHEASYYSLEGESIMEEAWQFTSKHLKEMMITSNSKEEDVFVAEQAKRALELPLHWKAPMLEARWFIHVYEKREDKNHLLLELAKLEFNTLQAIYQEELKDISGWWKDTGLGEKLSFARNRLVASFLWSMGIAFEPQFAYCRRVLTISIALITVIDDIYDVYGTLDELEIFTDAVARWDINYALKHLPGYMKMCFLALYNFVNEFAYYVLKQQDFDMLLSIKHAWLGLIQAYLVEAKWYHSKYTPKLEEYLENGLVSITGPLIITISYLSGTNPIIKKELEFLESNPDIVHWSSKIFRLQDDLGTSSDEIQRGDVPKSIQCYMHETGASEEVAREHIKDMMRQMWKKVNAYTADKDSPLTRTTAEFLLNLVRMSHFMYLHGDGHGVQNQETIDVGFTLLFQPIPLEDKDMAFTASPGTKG

Ki [1] | Ki [2] | SMILES
2.4 ± 0.5 µM |  | CC(C)=CCC/C(C)=C(\F)COP(=O)(O)OP(=O)(O)O [FGPP, 2-fluorogeranyl diphosphate]
 | 39.5 ± 5.2 µM | CC(C)=CCC/C(C)=C(/F)COP(=O)(O)OP(=O)(O)O [FNPP, 2-fluoroneryl diphosphate]
